The structures appear in SMILES notation.

For one assay, the target named is T1, FGFR1 (Homo sapiens, UniProt P11362).
T1 construct: made in house; host or cells: E. coli (BL21-derived), T7 phage
Nature of the assay: Kinase binding assay (kinase-tagged T7 phage, affinity beads, qPCR), Kd. To be noted: read-out: FGFR1 (Kd nM). The procedure, abridged:
(§1)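 T7 phage displaying each kinase, grown in a BL21-derived E. coli host at 32° C until lysis, competed with test compound for biotinylated ligand immobilised on streptavidin beads. Bead-bound kinase was eluted and quantified by qPCR. Kd came from an 11-point 3-fold dilution series fitted to the Hill equation with slope fixed at −1.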

For the next assay, the target named is T2, FGFR2 (Homo sapiens, UniProt P21802).
T2 construct: made in house; host or cells: E. coli (BL21-derived), T7 phage
The assay is described as above. To be noted: read-out: FGFR2 (Kd nM). An outline of the steps:
as §1

The next assay has as its target T3, FGFR4 (Homo sapiens, UniProt P22455).
T3 construct: made in house; host or cells: E. coli (BL21-derived), T7 phage
The description is as above. To be noted: read-out: FGFR4 (Kd nM). An outline of the steps: as §1

A further assay deals with T4, FGFR3 (V555M) (Homo sapiens, UniProt P22607, V555M).
T4 construct: made in house; host or cells: E. coli (BL21-derived), T7 phage
Described as above. To be noted: V555M mutant; read-out: FGFR3 (V555M) (Kd nM). An outline of the steps:
as §1

A further assay has as its target T5, FGFR3 (Homo sapiens, UniProt P22607).
T5 construct: made in house; host or cells: E. coli (BL21-derived), T7 phage
Described as above. To be noted: read-out: FGFR3 (Kd nM). The procedure, abridged:
as §1

The test system of assay [1] is RT112/84 cell line (FGFR3-fusion). Description: Cancer cell line cell viability assay (Cell Titer-Glo), 72 hr. The class given is cell-based. To be noted: Homo sapiens, RT112/84, RT112/84 cell line (FGFR3-fusion). The procedure, abridged: (§2)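 RPMI1640/10% FBS for RT112/84 and MDA-MB-453; IMDM/20% FBS for KG-1; IMDM/10% FBS for HuH7. Cells plated overnight, dosed from 3 μM in 4-fold, 9-point series, incubated at 37° C, then lysed with Cell Titer-Glo 2.0; IC50 by sigmoidal fit.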
For orientation: ATP-based viability assays read luminescence as a measure of living cells.

Assay [2] concerns KATO-III cell line (FGFR2 amplification). Described as above. The format is cell-based. To be noted: Homo sapiens, KATO III. An outline of the steps: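 Intracellular ATP was measured by Cell Titer-Glo 2.0 luminescence after cells were incubated with compound dilutions (top 3 μM, 4-fold, 9 doses). Values were expressed relative to DMSO-treated cells and IC50 was calculated from a variable-slope dose-response curve.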

Assay [3] has as its system KG-1 cell line (FGFR 1-fusion). The assay is described as above. The format is cell-based. To be noted: Homo sapiens, KG-1, KG-1 cell line (FGFR1-fusion). The procedure, abridged:
as §2

In assay [4] the test system is HuH7 cell line (FGF19 amplification). Description: Cancer cell line cell viability assay (Cell Titer-Glo), 120 hr. The class given is cell-based. To be noted: Homo sapiens, Huh-7. An outline of the steps: as §2

T3 sequence (P22455 22-802): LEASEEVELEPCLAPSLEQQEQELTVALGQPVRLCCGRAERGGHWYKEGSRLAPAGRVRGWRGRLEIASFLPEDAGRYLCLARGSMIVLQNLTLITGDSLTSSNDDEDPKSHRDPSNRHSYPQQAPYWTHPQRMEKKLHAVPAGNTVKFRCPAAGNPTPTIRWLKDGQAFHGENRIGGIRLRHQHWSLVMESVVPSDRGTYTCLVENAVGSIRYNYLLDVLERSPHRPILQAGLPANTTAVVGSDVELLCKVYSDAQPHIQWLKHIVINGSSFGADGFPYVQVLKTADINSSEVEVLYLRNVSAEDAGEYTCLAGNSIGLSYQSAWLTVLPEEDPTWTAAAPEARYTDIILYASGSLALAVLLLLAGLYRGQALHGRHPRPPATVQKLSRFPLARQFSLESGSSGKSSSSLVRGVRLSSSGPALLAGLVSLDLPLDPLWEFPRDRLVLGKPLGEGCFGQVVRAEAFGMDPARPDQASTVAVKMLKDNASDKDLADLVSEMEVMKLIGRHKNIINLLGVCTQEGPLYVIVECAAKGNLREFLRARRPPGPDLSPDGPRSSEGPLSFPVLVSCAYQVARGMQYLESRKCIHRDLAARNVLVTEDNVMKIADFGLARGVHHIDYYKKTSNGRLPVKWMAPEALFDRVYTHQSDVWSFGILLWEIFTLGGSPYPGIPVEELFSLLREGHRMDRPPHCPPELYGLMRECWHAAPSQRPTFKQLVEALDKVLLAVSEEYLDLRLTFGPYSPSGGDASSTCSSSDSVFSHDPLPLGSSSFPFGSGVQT
T2 sequence (P21802 22-821): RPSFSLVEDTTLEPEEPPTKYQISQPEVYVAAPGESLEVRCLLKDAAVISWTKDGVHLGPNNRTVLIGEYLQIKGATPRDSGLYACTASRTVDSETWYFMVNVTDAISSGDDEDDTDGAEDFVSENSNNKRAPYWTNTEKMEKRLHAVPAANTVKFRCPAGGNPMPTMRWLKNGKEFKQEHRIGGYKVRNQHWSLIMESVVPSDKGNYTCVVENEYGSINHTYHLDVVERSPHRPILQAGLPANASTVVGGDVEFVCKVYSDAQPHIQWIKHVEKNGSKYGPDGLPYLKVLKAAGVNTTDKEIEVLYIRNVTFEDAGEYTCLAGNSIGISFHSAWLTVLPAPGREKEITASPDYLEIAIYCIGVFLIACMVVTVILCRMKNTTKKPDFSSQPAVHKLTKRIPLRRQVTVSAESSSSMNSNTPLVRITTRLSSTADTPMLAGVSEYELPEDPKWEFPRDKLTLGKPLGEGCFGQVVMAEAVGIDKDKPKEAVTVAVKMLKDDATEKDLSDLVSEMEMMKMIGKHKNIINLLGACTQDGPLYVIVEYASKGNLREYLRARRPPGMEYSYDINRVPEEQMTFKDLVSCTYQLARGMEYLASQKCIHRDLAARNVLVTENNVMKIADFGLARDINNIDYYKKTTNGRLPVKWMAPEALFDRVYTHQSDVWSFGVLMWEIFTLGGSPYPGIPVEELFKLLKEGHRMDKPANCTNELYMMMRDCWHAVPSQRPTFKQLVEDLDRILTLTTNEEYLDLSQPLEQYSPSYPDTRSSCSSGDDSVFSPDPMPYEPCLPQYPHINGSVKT
T5 sequence (P22607 23-806): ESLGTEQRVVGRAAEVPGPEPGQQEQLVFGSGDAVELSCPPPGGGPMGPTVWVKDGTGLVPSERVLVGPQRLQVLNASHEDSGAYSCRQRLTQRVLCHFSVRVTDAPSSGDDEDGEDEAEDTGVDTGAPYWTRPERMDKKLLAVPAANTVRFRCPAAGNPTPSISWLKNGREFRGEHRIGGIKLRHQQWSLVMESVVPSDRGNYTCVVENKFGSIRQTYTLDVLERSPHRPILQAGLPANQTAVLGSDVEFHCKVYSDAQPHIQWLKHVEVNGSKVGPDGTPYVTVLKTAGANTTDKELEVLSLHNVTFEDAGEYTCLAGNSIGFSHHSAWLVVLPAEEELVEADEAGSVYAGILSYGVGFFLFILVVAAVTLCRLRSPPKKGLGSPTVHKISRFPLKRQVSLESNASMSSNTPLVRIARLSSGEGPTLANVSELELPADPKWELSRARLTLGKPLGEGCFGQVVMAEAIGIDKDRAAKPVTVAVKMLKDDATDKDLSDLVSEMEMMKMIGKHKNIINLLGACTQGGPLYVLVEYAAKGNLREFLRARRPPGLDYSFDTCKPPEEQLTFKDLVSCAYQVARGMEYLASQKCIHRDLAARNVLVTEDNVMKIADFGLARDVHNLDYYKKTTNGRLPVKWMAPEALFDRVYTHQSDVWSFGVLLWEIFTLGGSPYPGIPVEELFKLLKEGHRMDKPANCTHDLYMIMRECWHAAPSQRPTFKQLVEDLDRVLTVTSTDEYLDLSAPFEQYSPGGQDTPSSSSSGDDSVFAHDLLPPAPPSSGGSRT
T1 sequence (P11362 22-822): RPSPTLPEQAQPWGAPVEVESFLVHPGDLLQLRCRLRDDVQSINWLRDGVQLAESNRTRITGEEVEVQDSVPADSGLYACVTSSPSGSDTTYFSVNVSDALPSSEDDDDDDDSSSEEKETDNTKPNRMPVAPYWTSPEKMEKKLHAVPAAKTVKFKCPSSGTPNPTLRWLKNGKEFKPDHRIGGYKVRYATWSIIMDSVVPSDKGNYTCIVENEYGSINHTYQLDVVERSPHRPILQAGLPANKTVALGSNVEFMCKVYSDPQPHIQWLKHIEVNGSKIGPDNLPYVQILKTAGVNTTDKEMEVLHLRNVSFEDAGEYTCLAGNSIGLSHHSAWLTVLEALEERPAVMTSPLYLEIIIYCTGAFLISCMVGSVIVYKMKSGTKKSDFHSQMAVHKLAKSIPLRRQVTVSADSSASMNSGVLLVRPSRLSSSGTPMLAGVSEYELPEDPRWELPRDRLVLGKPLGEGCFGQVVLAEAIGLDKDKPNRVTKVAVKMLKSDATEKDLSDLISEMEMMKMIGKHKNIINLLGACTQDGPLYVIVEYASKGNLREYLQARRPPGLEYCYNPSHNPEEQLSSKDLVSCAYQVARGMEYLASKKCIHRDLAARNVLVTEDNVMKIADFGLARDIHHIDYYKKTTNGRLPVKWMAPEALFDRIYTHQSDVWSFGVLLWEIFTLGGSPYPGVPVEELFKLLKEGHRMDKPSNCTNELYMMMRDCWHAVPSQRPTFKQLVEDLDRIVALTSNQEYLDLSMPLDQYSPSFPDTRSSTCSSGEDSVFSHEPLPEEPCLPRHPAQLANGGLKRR
T4 sequence (P22607 23-806 V555M): as the sequence (P22607 23-806) above, with V533M counted along it

For the compound `COc1cc2[nH]nc(-c3cnc(N4CC(C)(N5C[C@H]6C[C@@H]5CO6)C4)c(C#N)c3)c2cc1O[C@H](C)c1c(Cl)cncc1Cl` [Example 338, 2-(3-((1R,4R)-2-oxa-5-aza-bicyclo[2.2.1]hep-tan-5-yl)-3-methylazetidin-1-yl)-5-(5-((R)-1-(3,5-dichloropyridin-4-yl)ethoxy)-6-methoxy-1H-indazol-3-yl)nicotinonitrile], the Kd on FGFR1, at FGFR2, at FGFR4, at FGFR3 (V555M) and on FGFR3 was 1 to 50 nM each time. The 50% inhibitory concentration (IC50) was in the range of 0.0001 to 0.05 µM in assay [1], 0.05 to 0.2 µM in assay [2], 0.05 to 0.2 µM in assay [3] and 0.0001 to 0.05 µM in assay [4].
Turning to `COc1cc2[nH]nc(-c3cnc(N4CC(C)(NC(C)C)C4)nc3)c2cc1O[C@H](C)c1c(Cl)cncc1Cl` [Example 82, (R)-1-(5-(5-(1-(3,5-dichloropyridin-4-yl)ethoxy)-6-methoxy-1H-indazol-3-yl)pyrimidin-2-yl)-N-isopropyl-3-methylazetidin-3-amine], the Kd on FGFR1, at FGFR2, at FGFR4, on FGFR3 (V555M) and on FGFR3 was 1 to 50 nM in each case. In addition, the 50% inhibitory concentration (IC50) in assay [1], in assay [2], in assay [3] and in assay [4] was 0.0001 to 0.05 µM each time.
As for `C[C@@H](Oc1ccc2[nH]nc(-c3cnc(N4CC(C)(N5CC(C)(O)C5)C4)c(C#N)c3)c2c1)c1c(Cl)cncc1Cl` [Example 100, (R)-5-(5-(1-(3,5-dichloropyridin-4-yl)ethoxy)-1H-indazol-3-yl)-2-(3-hydroxy-3,3′-dimethyl-[1,3′-biazetidin]-1′-yl)nicotinonitrile], the Kd at FGFR1, at FGFR2, on FGFR4, at FGFR3 (V555M) and at FGFR3 was 1 to 50 nM throughout. Further, the IC50 was in the range of 0.0001 to 0.05 µM in [1], 0.05 to 0.2 µM in [2], 0.05 to 0.2 µM in assay [3] and 0.0001 to 0.05 µM in assay [4].
On to `COc1cc2[nH]nc(-c3cnc(N4CC(C)(N5CCS(=O)(=O)CC5)C4)c(C#N)c3)c2cc1O[C@H](C)c1c(Cl)cncc1Cl` [Example 334, (R)-5-(5-(1-(3,5-dichloropyridin-4-yl)ethoxy)-6-methoxy-1H-indazol-3-yl)-2-(3-(1,1-dioxidothio-morpholino)-3-methylazetidin-1-yl)nicotinonitrile], for which the Kd at FGFR1, at FGFR2, on FGFR4, on FGFR3 (V555M) and at FGFR3 was 1 to 50 nM in each case. The IC50 lay in the range of 0.0001 to 0.05 µM in assay [1], 0.05 to 0.2 µM in [2], 0.2 to 1 µM in assay [3] and 0.0001 to 0.05 µM in assay [4].
For `COCCNC1(C)CN(c2ncc(-c3n[nH]c4ccc(O[C@H](C)c5c(Cl)cncc5Cl)cc34)cc2C#N)C1` [Example 88, (R)-5-(5-(1-(3,5-dichloropyridin-4-yl)ethoxy)-1H-indazol-3-yl)-2-(3-((2-methoxyethyl)amino)-3-methylazetidin-1-yl)nicotinonitrile], the Kd at FGFR1 lay in the range of 1 to 50 nM; on FGFR2 it was 50 to 300 nM; at FGFR4, 1 to 50 nM; on FGFR3 (V555M), 1 to 50 nM; at FGFR3, 1 to 50 nM. Also, the IC50 lay within 0.05 to 0.2 µM in assay [1], 0.05 to 0.2 µM in assay [2], 0.2 to 1 µM in assay [3] and 0.0001 to 0.05 µM in assay [4].
Consider `C[C@@H](O)CNC1(C)CN(c2ncc(-c3n[nH]c4ccc(O[C@H](C)c5c(Cl)cncc5Cl)cc34)cc2C#N)C1` [Example 56, 5-(5-((R)-1-(3,5-dichloropyridin-4-yl)ethoxy)-1H-indazol-3-yl)-2-(3-(((R)-2-hydroxypropyl)amino)-3-methylazetidin-1-yl)nicotinonitrile], for which the Kd at FGFR1, at FGFR2, at FGFR4, at FGFR3 (V555M) and at FGFR3 was 1 to 50 nM in each case. The half-inhibitory concentration (IC50) in assay [1] was 0.0001 to 0.05 µM; in assay [2] it was 0.05 to 0.2 µM; in assay [3], 0.2 to 1 µM; in assay [4], 0.0001 to 0.05 µM.
Take `C[C@@H](Oc1ccc2[nH]nc(-c3cnc(N4CC(C)(NC5CS(=O)(=O)C5)C4)c(C#N)c3)c2c1)c1c(Cl)cncc1Cl` [Example 7, (R)-5-(5-(1-(3,5-dichloropyridin-4-yl)ethoxy)-1H-indazol-3-yl)-2-(3-((1,1-dioxidothietan-3-yl)amino)-3-methylazetidin-1-yl)nicotinonitrile]: the Kd at FGFR1 was 50 to 300 nM; on FGFR2, 50 to 300 nM; on FGFR4, 1 to 50 nM; on FGFR3 (V555M), 1 to 50 nM; on FGFR3, 1 to 50 nM. Besides, the concentration for half-maximal inhibition (IC50) in assay [1] lay in the range of 0.0001 to 0.05 µM; in assay [2], 0.05 to 0.2 µM; in [3], 0.2 to 1 µM; in [4] it was 0.0001 to 0.05 µM.
As to `C[C@@H](Oc1ccc2[nH]nc(-c3cnc(N4CC(C)(N5CCOCC5)C4)nc3)c2c1)c1c(Cl)cncc1Cl` [Example 43, (R)-4-(1-(5-(5-(1-(3,5-dichloropyridin-4-yl)ethoxy)-1H-indazol-3-yl)pyrimidin-2-yl)-3-methylazetidin-3-yl)morpholine], the dissociation constant Kd at FGFR1, at FGFR2, on FGFR4, on FGFR3 (V555M) and on FGFR3 was 1 to 50 nM in each case. For the same compound, the IC50 was 0.0001 to 0.05 µM in assay [1], 0.05 to 0.2 µM in [2], 0.05 to 0.2 µM in assay [3] and 0.0001 to 0.05 µM in [4].
In the case of `CC[C@@H](C)NC1(C)CN(c2ncc(-c3n[nH]c4cc(OC)c(O[C@H](C)c5c(Cl)cncc5Cl)cc34)cc2C#N)C1` [Example 145, 5-[5-[(1R)-1-(3,5-dichloro-4-pyridyl)ethoxy]-6-methoxy-1H-indazol-3-yl]-2-[3-methyl-3-[[(1R)-1-methylpropyl]amino]aze-tidin-1-yl]pyridine-3-carbonitrile], the Kd on FGFR1, at FGFR2, on FGFR4, at FGFR3 (V555M) and at FGFR3 was 1 to 50 nM in each case. The IC50 fell in the range of 0.0001 to 0.05 µM in assay [1], 0.05 to 0.2 µM in assay [2], 0.05 to 0.2 µM in assay [3] and 0.0001 to 0.05 µM in [4].
Take `C[C@@H](Oc1cc2c(-c3cnc(N4CC(C)(NCC5CC5)C4)c(C#N)c3)n[nH]c2cc1F)c1c(Cl)cncc1Cl` [Example 134, (R)-2-(3-((cyclopropylmethyl)a-mino)-3-methylazetidin-1-yl)-5-(5-(1-(3,5-dichloropyridin-4-yl)ethoxy)-6-fluoro-1H-indazol-3-yl)nicotinonitrile]: the Kd on FGFR1 lay within 50 to 300 nM; on FGFR2, 50 to 300 nM; at FGFR4, 1 to 50 nM; on FGFR3 (V555M), 1 to 50 nM; on FGFR3, 1 to 50 nM. The IC50 in [1] was in the range of 0.05 to 0.2 µM; in [2], 0.2 to 1 µM; in assay [3], 0.2 to 1 µM; in assay [4] it was 0.05 to 0.2 µM.
On to `C[C@@H](Oc1ccc2[nH]nc(-c3cnc(N4CC(C)(NCCO)C4)c(C#N)c3)c2c1)c1c(Cl)cncc1Cl` [Example 52, 5-[5-[(1R)-1-(3,5-dichloro-4-pyridyl)ethoxy]-1H-indazol-3-yl]-2-[3-(2-hydroxyethylamino)-3-methyl-azetidin-1-yl]pyridine-3-carbonitrile], for which the Kd at FGFR1, on FGFR2, at FGFR4, on FGFR3 (V555M) and on FGFR3 was 1 to 50 nM each time. The IC50 lay in the range of 0.05 to 0.2 µM in assay [1], 0.05 to 0.2 µM in assay [2], 0.2 to 1 µM in [3] and 0.0001 to 0.05 µM in [4].
For `CC(C)NCC1(C)CN(c2ncc(-c3n[nH]c4ccc(O[C@H](C)c5c(Cl)cncc5Cl)cc34)cc2C#N)C1` [Example 133, 5-[5-[(1R)-1-(3,5-dichloro-4-pyridyl)ethoxy]-1H-indazol-3-yl]-2-[3-[(isopropylamino)meth-yl]-3-methyl-azetidin-1-yl]pyridine-3-carbonitrile], the Kd lay in the range of 1 to 50 nM at FGFR1; 50 to 300 nM on FGFR2; 1 to 50 nM on FGFR4; 1 to 50 nM on FGFR3 (V555M); 1 to 50 nM on FGFR3. Besides, the concentration for half-maximal inhibition (IC50) lay in the range of 0.05 to 0.2 µM in [1], 0.2 to 1 µM in assay [2], 0.05 to 0.2 µM in assay [3] and 0.2 to 1 µM in [4].

Broadly, the Kd is the constant that tells how readily two partners part at equilibrium. A word on the IC50: it is the midpoint of a concentration-inhibition curve. A low value points to inhibition by little substance.

Source of the values: patent publication US20250368666A1, “INDAZOLE COMPOUNDS” (TYRA BIOSCIENCES, INC., priority 2022, published 2025).
